Data: publication PMC4459817, “Vasculotide reduces endothelial permeability and tumor cell extravasation in the absence of binding to or agonistic activation of Tie2” (EMBO Molecular Medicine, 2015)
One block for each molecule: values may come before it.

Columns and labels:
[1] = system: advanced metastatic breast cancer; conditions: ref Yardley et al, 2012; cited from earlier work
Text: Another possible explanation for the apparent insensitivity of MBC to TKI treatments is that the growth of secondary tumors post-metastatic colonization of the lung/liver may still be susceptible to the intended anti-angiogenic inhibition, but that these growth-inhibitory benefits may be diluted by concurrent unintended drug effects that promote tumor spread.

[2] = system: human microvascular ECs of dermal blood vessel origin (HMVEC-DBl); experiment: modified Boyden chamber, thrombin-stimulated FITC-dextran permeability, HMVEC-DBl; assay type: cell-based; conditions: Fig1D
Description: ECs were first treated with Vasculotide (VT), PBS (vehicle/negative control), Ang1 (positive control), PEG-Cys (polyethylene glycol backbone), T7c (non-PEGylated CHHHRHSF peptides), or VT in the presence of 100-fold molar excess of T7c. The concentrations used, 10–20 ng/mL VT and 200–400 ng/mL Ang1, are estimated molar equivalents (0.71–1.43 nM). Thirty minutes later, ECs were stimulated with thrombin, 0.1% BSA (vehicle/negative control), or EDTA (positive control). Another 30mins later, the amount of FITC-dextran diffusion into the lower chambers (A, D) provides a measure of endothelial permeability. CMTPX-labeled tumor cells (TCs) were then dispensed into inserts, and the amount of TC fluorescence emitting from the underside of insert membranes after 20 h (B–C) or 28 h (E) reflects the efficiency of trans-endothelial TC migration. Representative fluorescent images (10×) of membrane undersides are shown in (C), where DAPI-stained nuclei of ECs/TCs are shown in blue, ‘extravasated’ CMTPX-labeled TCs are shown in red, and the # of CMTPX^+ pixels are shown numerically in red. Means ± SEM are shown (A,B,D,E). Three experiments (twice with HMVEC-LBl and once with HMVEC-DBl) were run with n = 3–5 inserts (independent biological replicates) per group and analyzed by two-sampled unpaired t-tests. […]
Endothelial cells (ECs) were grown on cell culture inserts with uncoated 8-μm-pore PET filter membranes to 100% confluency. […] After 30 min of thrombin stimulation or 4–6 h of TC-CM stimulation, FITC fluorescence (ex/em = 490/520 nm) was measured from a 50 μl sample of the lower chamber media. […] CMPTX fluorescence from migrated TCs was then quantified from 10× microscopy images using a MATLAB (MathWorks, Natick, MA, USA) script; five images (technical replicates) were analyzed per insert. […]

[3] = biological target: T1, human Tie2-Fc (Fc-conjugated extracellular domain of Tie2) (human, UniProt Q02763 23-748); experiment: SPR
T1 chain: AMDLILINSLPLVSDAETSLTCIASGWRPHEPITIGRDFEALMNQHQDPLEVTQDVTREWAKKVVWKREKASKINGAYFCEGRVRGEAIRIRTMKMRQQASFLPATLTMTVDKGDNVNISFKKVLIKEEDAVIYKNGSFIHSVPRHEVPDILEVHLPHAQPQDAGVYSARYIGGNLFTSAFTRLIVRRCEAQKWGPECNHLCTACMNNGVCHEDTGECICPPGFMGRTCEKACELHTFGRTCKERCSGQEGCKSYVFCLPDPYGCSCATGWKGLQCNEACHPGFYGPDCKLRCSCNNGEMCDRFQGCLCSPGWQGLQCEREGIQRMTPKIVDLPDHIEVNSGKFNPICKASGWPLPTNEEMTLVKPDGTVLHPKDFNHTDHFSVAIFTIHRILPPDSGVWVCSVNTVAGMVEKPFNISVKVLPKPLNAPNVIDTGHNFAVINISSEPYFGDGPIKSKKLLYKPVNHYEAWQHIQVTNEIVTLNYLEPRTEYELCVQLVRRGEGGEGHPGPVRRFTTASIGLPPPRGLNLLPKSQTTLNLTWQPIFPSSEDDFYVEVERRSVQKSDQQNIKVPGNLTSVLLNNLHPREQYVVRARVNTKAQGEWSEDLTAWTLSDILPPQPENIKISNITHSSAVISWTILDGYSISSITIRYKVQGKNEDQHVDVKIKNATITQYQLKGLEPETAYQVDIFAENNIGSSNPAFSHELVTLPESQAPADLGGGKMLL

Molecule: CCN(CC)CCNC(=O)c1c(C)[nH]c(/C=C2\C(=O)Nc3ccc(F)cc32)c1C [sunitinib, reference compound]
response rate, distally disseminated visceral metastatic disease [1]: 9%
response rate, locoregionally growing superficial metastatic disease [1]: 20%

Molecule: CHHHRHSF [Vasculotide, 4-armed maleimide-functionalized polyethylene glycol (PEG) backbone to link together four cysteine-capped T7 peptides, that is, CHHHRHSF]
anti-permeability effect of VT in presence of 100-fold molar excess of T7c ([2]; HMVEC-DBl): dampened the effects of VT
transendothelial permeability of FITC-dextran ([2]; thrombin-stimulated HMVEC-DBl, VT 10–20 ng/mL, FITC fluorescence ex/em 490/520 nm, n = 3–5 inserts): counteract thrombin-stimulated increases in transendothelial permeability of FITC-dextran (P < 0.05

Kd [3]: 0.205 nM
B1: recombinant human Ang1 (rhAng1) (ligand, UniProt Q15389 16-498, looked up)
chain: HIGCSNQRRSPENSGRRYNRIQHGQCAYTFILPEHDGNCRESTTDQYNTNALQRDAPHVEPDFSSQKLQHLEHVMENYTQWLQKLENYIVENMKSEMAQIQQNAVQNHTATMLEIGTSLLSQTAEQTRKLTDVETQVLNQTSRLEIQLLENSLSTYKLEKQLLQQTNEILKIHEKNSLLEHKILEMEGKHKEELDTLKEEKENLQGLVTRQTYIIQELEKQLNRATTNNSVLQKQQLELMDTVHNLVNLCTKEGVLLKGGKREEEKPFRDCADVYQAGFNKSGIYTIYINNMPEPKKVFCNMDVNGGGWTVIQHREDGSLDFQRGWKEYKMGFGNPSGEYWLGNEFIFAITSQRQYMLRIELMDWEGNRAYSQYDRFHIGNEKQNYRLYLKGHTGTAGKQSSLILHGADFSTKDADNDNCMCKCALMLTGGWWFDACGPSNLNGMFYTAGQNHGKLNGIKWHYFKGPSYSLRSTTMMIRPLDF
notes: angiopoietin-1, human, recombinant; also called angiopoietin-1; source: bought: R&D Systems (named for the Boyden chamber experiments)
